tested on: ATXN3-HiBiT protein; assay: ATXN3 Total Protein Assay (Kelly-ATXN3-HiBiT luminescence); assay type: cell-based; settings: Kelly-ATXN3-HiBiT cells, 48 h after addition of compound
Text: Example 36: ATXN3 Total Protein Assay
To monitor ATXN3 protein levels by luminescence, a Kelly-ATXN3-HiBiT cell line with homozygous knock-in of HiBiT at the C-terminus of the endogenous ATXN3 gene was used (knock-in of the HiBiT-tag coding sequence SEQ ID NO. 14: 5′[…]3′ into exon 11 of ATXN3-position 1114 of ATXN3 RefSeq NM_004993.6). Manipulations of the Kelly-ATXN3-HiBiT cell line that result in downregulation of the ATXN3-HiBiT protein (through modulation of ATXN3-HiBiT pre-mRNA splicing) can be followed by monitoring the luminescence signal of the HiBiT tag using the Nano Glo HiBiT Lytic Detection System (Promega, #N3050). Kelly-ATXN3-HiBiT cells were maintained in RPMI 1640 w/Glutamax (Gibco, #61870010), 10% FBS (Sigma Aldrich, #F8687), 1% Penicillin/Streptomycin (Gibco, #15140-122) at 37° C., 5% CO2. To assess HiBiT-luminescence signal upon compound treatment, 2000 Kelly-ATXN3-HiBiT cells were seeded per well in 384 plate format. Compounds were added 24 h after seeding. ATXN3-HiBiT-luminescence signal was read out 48 h after addition of the compound using the Nano Glo HiBiT Lytic Detection System (Promega, #N3050) according to the manufacturer's instructions. To control for cell viability, an identically prepared sister plate was read out with the CellTiter-Glo® 2.0 Assay (Promega, #G9243) according to the manufacturer's instructions. Fold changes of ATXN3-HiBiT-luminescence and of CellTiter-Glo viability signals were calculated relative to a DMSO control condition.

EC50 | SMILES
101 to 500 nM | Cc1c(CC(N)CC2(F)CC2)oc2c(NCc3cccs3)cc(Cl)nc12 (centres unmarked) [Compound 67, 2-[2-amino-3-(1-fluorocyclopropyl)propyl]-5-chloro-3-methyl-7-thenylamino-1-oxa-4-azaindene]
501 to 5000 nM | Cc1c(C[C@@H](N)CC2(F)CC2)oc2c(NCc3cccs3)cc(Cl)nc12 [Compound 68, 2-[(R)-2-amino-3-(1-fluorocyclopropyl)propyl]-5-chloro-3-methyl-7-thenylamino-1-oxa-4-azaindene]
0.01 to 100 nM | Cc1c(C[C@H](N)CC2(F)CC2)oc2c(NCc3cccs3)cc(Cl)nc12 [Compound 69, 2-[(S)-2-amino-3-(1-fluorocyclopropyl)propyl]-5-chloro-3-methyl-7-thenylamino-1-oxa-4-azaindene]
10000 to 40000 nM | Cc1c(CC(N)CC2COC2)oc2c(NCc3cccs3)cc(Cl)nc12 (centres unmarked) [Compound 70, 2-[2-amino-3-(3-oxetanyl)propyl]-5-chloro-3-methyl-7-thenylamino-1-oxa-4-azaindene]
10000 to 40000 nM | Cc1c(CC(N)CC2(F)COC2)oc2c(NCc3cccs3)cc(Cl)nc12 (centres unmarked) [Compound 73, 2-[2-amino-3-(3-fluoro-3-oxetanyl)propyl]-5-chloro-3-methyl-7-thenylamino-1-oxa-4-azaindene]
501 to 5000 nM | N[C@@H](Cc1oc2c(NCc3cccs3)cc(Cl)nc2c1Br)CC1(F)CC1 [Compound 86, 2-[(S)-2-amino-3-(1-fluorocyclopropyl)propyl]-3-bromo-5-chloro-7-thenylamino-1-oxa-4-azaindene]
101 to 500 nM | N[C@H](Cc1oc2c(NCc3cccs3)cc(Cl)nc2c1Br)CC1(F)CC1 [Compound 87, 2-[(R)-2-amino-3-(1-fluorocyclopropyl)propyl]-3-bromo-5-chloro-7-thenylamino-1-oxa-4-azaindene]
10000 to 40000 nM | COC1([C@H](N)Cc2oc3c(NCc4cccs4)cc(Cl)nc3c2Br)CC1 [Compound 144, 2-[(R)-2-amino-2-(1-methoxycyclopropyl)ethyl]-3-bromo-5-chloro-7-thenylamino-1-oxa-4-azaindene]
0.01 to 100 nM | N[C@@H](CCOC(F)(F)F)Cc1oc2c(NCc3cccs3)cc(Cl)nc2c1Br [Compound 146, 2-[(S)-2-amino-4-trifluoromethoxybutyl]-3-bromo-5-chloro-7-thenylamino-1-oxa-4-azaindene]
0.01 to 100 nM | COCC[C@H](N)Cc1oc2c(NCc3cccs3)cc(Cl)nc2c1Br [Compound 147, 2-[(S)-2-amino-4-methoxybutyl]-3-bromo-5-chloro-7-thenylamino-1-oxa-4-azaindene]
501 to 5000 nM | N#CC[C@H](N)Cc1oc2c(NCc3cccs3)cc(Cl)nc2c1Br [Compound 155, (S)-3-amino-4-(3-bromo-5-chloro-7-thenylamino-1-oxa-4-aza-2-indenyl)butyronitrile]
0.01 to 100 nM | N[C@@H](COCC(F)F)Cc1oc2c(NCc3cccs3)cc(Cl)nc2c1Br [Compound 182, 2-[(R)-2-amino-3-(2,2-difluoroethoxy)propyl]-3-bromo-5-chloro-7-thenylamino-1-oxa-4-azaindene]
101 to 500 nM | N[C@H](Cc1oc2c(NCc3cccs3)cc(Cl)nc2c1Br)C[C@@H]1CC1(F)F [Compound 183, 2-{(S)-3-[(R)-2,2-difluorocyclopropyl]-2-aminopropyl}-3-bromo-5-chloro-7-thenylamino-1-oxa-4-azaindene]
101 to 500 nM | N[C@H](Cc1oc2c(NCc3cccs3)cc(Cl)nc2c1Br)C[C@H]1CC1(F)F [Compound 184, 2-{(S)-3-[(S)-2,2-difluorocyclopropyl]-2-aminopropyl}-3-bromo-5-chloro-7-thenylamino-1-oxa-4-azaindene]
0.01 to 100 nM | CC(=O)NC[C@H](N)Cc1oc2c(NCc3cccs3)cc(Cl)nc2c1Br [Compound 219]
101 to 500 nM | C[C@H](N)C(F)(F)c1oc2c(NCc3nccs3)cc(Cl)nc2c1Br [Compound 223, 2-[(S)-2-amino-1,1-difluoropropyl]-3-bromo-5-chloro-7-{[(1,3-thiazol-2-yl)methyl]amino}-1-oxa-4-azaindene]
501 to 5000 nM | N[C@@H](CO)C(F)(F)c1oc2c(NCc3nccs3)cc(Cl)nc2c1Br [Compound 224, (S)-2-amino-3-(3-bromo-5-chloro-7-{[(1,3-thiazol-2-yl)methyl]amino}-1-oxa-4-aza-2-indenyl)-3,3-difluoro-1-propanol]
0.01 to 100 nM | [2H]C([2H])([2H])OC[C@H](N)Cc1oc2c(NCc3cccs3)cc(Cl)nc2c1C#C [Compound 233, 2-[(R)-2-amino-3-(2H3)methoxypropyl]-5-chloro-3-ethynyl-7-thenylamino-1-oxa-4-azaindene]
501 to 5000 nM | N#CC[C@H](N)Cc1oc2c(NCc3ccco3)cc(Cl)nc2c1Br [Compound 235, (S)-3-amino-4-[3-bromo-5-chloro-7-(furfurylamino)-1-oxa-4-aza-2-indenyl]butyronitrile]
0.01 to 100 nM | C#Cc1c(C[C@@H](N)COC2CC2)oc2c(NCc3cccs3)cc(Cl)nc12 [Compound 244, 2-[(R)-2-amino-3-cyclopropoxypropyl]-5-chloro-3-ethynyl-7-thenylamino-1-oxa-4-azaindene]
101 to 500 nM | [2H]C([2H])(Nc1cc(Cl)nc2c(Br)c(C[C@@H](N)COC(F)(F)F)oc12)c1cccs1 [Compound 246, 2-[(R)-2-amino-3-trifluoromethoxypropyl]-3-bromo-5-chloro-7-{[(2-thienyl)(^2H2)methyl]amino}-1-oxa-4-azaindene]
0.01 to 100 nM | C#Cc1c(C[C@@H](N)CO)oc2c(NCc3cccs3)cc(Cl)nc12 [Compound 248, (R)-2-amino-3-(5-chloro-3-ethynyl-7-thenylamino-1-oxa-4-aza-2-indenyl)-1-propanol]
0.01 to 100 nM | [2H]C([2H])([2H])OC[C@H](N)Cc1oc2c(NC([2H])([2H])c3cccs3)cc(Cl)nc2c1Br [Compound 249, 2-[(R)-2-amino-3-(^2H3)methoxypropyl]-3-bromo-5-chloro-7-{[(2-thienyl)(^2H2)methyl]amino}-1-oxa-4-azaindene]
0.01 to 100 nM | [2H]C([2H])([2H])OC[C@H](N)Cc1oc2c(NC([2H])([2H])c3cccs3)cc(Cl)nc2c1C#C [Compound 250, 2-[(R)-2-amino-3-(^2H3)methoxypropyl]-5-chloro-3-ethynyl-7-{[(2-thienyl)(^2H2)methyl]amino}-1-oxa-4-azaindene]
0.01 to 100 nM | [2H]C([2H])([2H])OC[C@H](N)Cc1oc2c(NCc3cccs3)cc(Cl)nc2c1Cl [Compound 264, 2-[(R)-2-amino-3-(^2H3)methoxypropyl]-3,5-dichloro-7-thenylamino-1-oxa-4-azaindene]
0.01 to 100 nM | [2H]C([2H])([2H])OC[C@H](N)Cc1oc2c(NCc3ccco3)cc(Cl)nc2c1Cl [Compound 265, 2-[(R)-2-amino-3-(^2H3)methoxypropyl]-3,5-dichloro-7-(furfurylamino)-1-oxa-4-azaindene]
0.01 to 100 nM | C#Cc1c(C[C@@H](N)CCOC)oc2c(NCc3cccs3)cc(Cl)nc12 [Compound 266, 2-[(S)-2-amino-4-methoxybutyl]-5-chloro-3-ethynyl-7-thenylamino-1-oxa-4-azaindene]
101 to 500 nM | [2H]C([2H])([2H])OCC[C@H](N)Cc1oc2c(NCc3cccs3)cc(Cl)nc2c1Br [Compound 267, 2-[(S)-2-amino-4-(^2H3)methoxybutyl]-3-bromo-5-chloro-7-thenylamino-1-oxa-4-azaindene]

SMILES | EC50
[2H][C@@](C)(N)Cc1oc2c(NCc3cccs3)cc(Cl)nc2c1Br [Compound 229, 2-[(S)-2-amino(2-2H)propyl]-3-bromo-5-chloro-7-thenylamino-1-oxa-4-azaindene] | 0.01 to 100 nM
[2H]C([2H])([2H])C(N)Cc1oc2c(NCc3cccs3)cc(Cl)nc2c1Br (centres unmarked) [Compound 230, 2-[2-amino(3,3,3-^2H3)propyl]-3-bromo-5-chloro-7-thenylamino-1-oxa-4-azaindene] | 0.01 to 100 nM
[2H]C([2H])([2H])[C@H](N)Cc1oc2c(NCc3cccs3)cc(Cl)nc2c1Br [Compound 231, 2-[(S)-2-amino(3,3,3-2H3)propyl]-3-bromo-5-chloro-7-thenylamino-1-oxa-4-azaindene] | 0.01 to 100 nM
[2H]C([2H])([2H])[C@@H](N)Cc1oc2c(NCc3cccs3)cc(Cl)nc2c1Br [Compound 232, 2-[(R)-2-amino(3,3,3-^2H3)propyl]-3-bromo-5-chloro-7-thenylamino-1-oxa-4-azaindene] | 101 to 500 nM
[2H]C([2H])(Nc1cc(Cl)nc2c(Br)c(C[C@]([2H])(C)N)oc12)c1cccs1 [Compound 234, 2-[(S)-2-amino(2-2H)propyl]-3-bromo-5-chloro-7-{[(2-thienyl)(^2H2)methyl]amino}-1-oxa-4-azaindene] | 0.01 to 100 nM
[2H][C@@](C)(N)Cc1oc2c(NCc3cccs3)cc(Cl)nc2c1C#C [Compound 268, 2-[(S)-2-amino(2-^2H)propyl]-5-chloro-3-ethynyl-7-thenylamino-1-oxa-4-azaindene] | 0.01 to 100 nM
[2H]C([2H])([2H])C(N)Cc1oc2c(NCc3cccs3)cc(Cl)nc2c1C#C (centres unmarked) [Compound 269, 2-[2-amino(3,3,3-^2H3)propyl]-5-chloro-3-ethynyl-7-thenylamino-1-oxa-4-azaindene] | 0.01 to 100 nM
